The values below come from patent publication US9012493B2, “1-heterodiene derivative and pest control agent” (Nippon Soda Co., Ltd., priority 2009, dated 2015).

The first experiment deals with Sweetpotato Whitefly (Bemisia Tabaci). Nature of the experiment: Efficacy test against sweetpotato whitefly, sprayed tomato leaf. The experiment is classed as in vivo. The settings on record: 125 ppm, emulsifiable concentrate diluted with water, adults (type B), after 2 days, 25° C. As to the method:
(§1) Test Examples of the pest control agent thus obtained according to the present invention are shown below. In respective Test Examples, the insecticidal rate (%) was determined by the following calculation equation. Insecticidal rate (%)=(number of dead pests/number of released pests)×100
The emulsifiable concentrate obtained according to Formulation of Formulation Example 2 was diluted with water so as to control the concentration of the compound to 125 ppm. The diluted solution was sprayed over a tomato leaf obtained by cutting and then air-dried. Using absorbent cotton, the leaf was fixed to a flask so that a front surface of the leaf faces upward. Seven pairs of adults of sweetpotato whitefly (type B) were inoculated in this container, and the container was placed in a temperature-controlled room at a temperature of 25° C. and a humidity of 65%. After 2 days, life and death were examined and the insecticidal rate was determined. The test was repeated twice.
`C=C1SC(=Nc2ccc(C)cc2)C(=CSc2ccccc2C(F)(F)F)CC1(C)C` [Compound 2-100] registered an insecticidal rate of 100%.
For `C=C1SC(=Nc2ccc(C)cc2)C(=CSc2ccccc2F)CC1(C)C` (mixture of isomers) [Compound 2-85], the insecticidal rate came out at 100%.
As to `C=C1SC(=Nc2cccc(C(F)(F)F)c2)C(=CSc2ccccc2)CC1(C)C` [Compound 2-36], the insecticidal rate is on record as 100%.
On the same count and under the same terms, under `C=C1SC(=Nc2ccc(C)cc2)C(=CSc2ccc(C)cc2)CC1(C)C` (mixture of isomers) [Compound 2-86] stands 100%; under `C=C1SC(=Nc2ccc(C)cc2)C(=CSc2cccc(OC)c2)CC1(C)C` [Compound 2-20], 100%; under `C=C1SC(=Nc2ccc(C)cc2)C(=CSc2ccc(C#N)cc2)CC1(C)C` [Compound 2-72], 100%.
Same read-out and setting: under `CC/C=C1/CCC(=C\Sc2ccccc2)/C(=N/c2ccc(Cl)cc2)S1` [Compound 2-3] stands 100%.
Same read-out and setting: under `C=C1SC(=Nc2ccc(C)cc2)C(=CSc2nc3ccccc3s2)CC1(C)C` [Compound 2-94] stands 100%; under `C=C1SC(=Nc2ccc(C)cc2)C(=CSc2ccccc2)CC12CCOCC2` [Compound 2-56], 100%.
Consider `C=C1SC(=Nc2ccc(C)cc2)C(=CSc2ccccc2)CC1CCC` (stereo not drawn) [Compound 2-75], for which the insecticidal rate is 100%.
For `CC(C)=C1CCC(=CSc2ccccc2)C(=Nc2ccc(C)cc2)S1` (mixture of isomers) [Compound 6-1], the insecticidal rate is given as 100%.
The same measure, in the same setting: under `C=C1SC(=Nc2ccc(C)cc2)C(=CSc2ccc(OC)s2)CC1(C)C` [Compound 2-80] stands 100%; under `C=C1SC(=Nc2ccc(OC)cc2)C(=CSc2ccc(F)cc2)CC1(C)C` [Compound 2-46], 100%.
Still for that read-out and setting: the result for `C=C1SC(=Nc2ccc(C)cc2)C(=CSc2ccccc2)CC1CC` (stereo not drawn) [Compound 2-68] reads 100%; that for `C=C1SC(=Nc2ccc(OC)c(C)c2)C(=CSc2ccccc2)CC1(C)C` [Compound 2-34], 100%.

The test system of another experiment is Cotton Aphid (Aphis Gossypii). In words: Efficacy test against cotton aphid, spray on cucumber plant. The experiment is classed as in vivo. The note with it: 125 ppm, emulsifiable concentrate diluted with water, sprayed over cucumber plant with nymphs, after 5 days, 25° C. As to the method: as §1
The emulsifiable concentrate obtained according to Formulation of Formulation Example 2 was diluted with water so as to control the concentration of the compound to 125 ppm. Adults of cotton aphids were inoculated to a cucumber plant (approximately 10 days after sprouting) sown in a 3 sun/size pot (9 cm). After 1 day, adult aphids were removed and the diluted solution was sprayed over the cucumber plant on which delivered nymphs are parasitic. The pot was placed in a temperature-controlled room at a temperature of 25° C. and a humidity of 65%. After 5 days, life and death were examined and the insecticidal rate was determined. The test was repeated twice.
Consider `C=C1SC(=Nc2ccc(C)cc2)C(=CSc2ccccc2C(F)(F)F)CC1(C)C` [Compound 2-100], for which the insecticidal rate is listed as 100%.
On the same count and under the same terms, under `C=C1SC(=Nc2ccc(C)cc2)C(=CSc2ccccc2F)CC1(C)C` (mixture of isomers) [Compound 2-85] stands 100%; under `C=C1SC(=Nc2cccc(C(F)(F)F)c2)C(=CSc2ccccc2)CC1(C)C` [Compound 2-36], 100%; under `C=C1SC(=Nc2ccc(C)cc2)C(=CSc2ccc(C)cc2)CC1(C)C` (mixture of isomers) [Compound 2-86], 100%.
The compound `C=C1SC(=Nc2ccc(C)cc2)C(=CSc2cccc(OC)c2)CC1(C)C` [Compound 2-20] yielded an insecticidal rate of 100%.
Same read-out and setting: under `C=C1SC(=Nc2ccc(C)cc2)C(=CSc2ccc(C#N)cc2)CC1(C)C` [Compound 2-72] stands 100%.
Same read-out and setting: the result for `CC/C=C1/CCC(=C\Sc2ccccc2)/C(=N/c2ccc(Cl)cc2)S1` [Compound 2-3] reads 100%; that for `C=C1SC(=Nc2ccc(C)cc2)C(=CSc2nc3ccccc3s2)CC1(C)C` [Compound 2-94], 100%; that for `C=C1SC(=Nc2ccc(C)cc2)C(=CSc2ccccc2)CC12CCOCC2` [Compound 2-56], 100%.
Same read-out and setting: under `C=C1SC(=Nc2ccc(C)cc2)C(=CSc2ccccc2)CC1CCC` (stereo not drawn) [Compound 2-75] stands 100%; under `CC(C)=C1CCC(=CSc2ccccc2)C(=Nc2ccc(C)cc2)S1` (mixture of isomers) [Compound 6-1], 100%; under `C=C1SC(=Nc2ccc(C)cc2)C(=CSc2ccc(OC)s2)CC1(C)C` [Compound 2-80], 100%.
Regarding `C=C1SC(=Nc2ccc(OC)cc2)C(=CSc2ccc(F)cc2)CC1(C)C` [Compound 2-46], the insecticidal rate is 100%.
The same measure, in the same setting: under `C=C1SC(=Nc2ccc(C)cc2)C(=CSc2ccccc2)CC1CC` (stereo not drawn) [Compound 2-68] stands 100%; under `C=C1SC(=Nc2ccc(OC)c(C)c2)C(=CSc2ccccc2)CC1(C)C` [Compound 2-34], 100%.

For the next experiment, the system named is Twospotted Spider Mite (Tetranychus Urticae Koch). Nature of the experiment: Efficacy test against twospotted spider mite, spray on kidney bean plant. The experiment is classed as in vivo. The note with it: 125 ppm, wettable powder diluted with water, sprayed, female adults with resistance to an organophosphorus agent on kidney bean, after 3 days. As for the experimental part:
The wettable powder obtained according to Formulation of Formulation Example 1 was diluted with water so as to control the concentration of the compound to 125 ppm. Seventeen female adults of twospotted spider mite with resistance to an organophosphorus agent were inoculated on a first true leaf of a kidney bean plant (approximately 7 to 10 days after sprouting) sown in a 3 sun/size pot (9 cm). The diluted solution was sprayed. The pot was placed in a temperature-controlled room at a temperature of 25° C. and a humidity of 65%. After 3 days, the adulticidal rate was examined. The test was repeated twice.
`C=C1SC(=Nc2ccc(C)cc2)C(=CSc2ccccc2C(F)(F)F)CC1(C)C` [Compound 2-100] yielded an adulticidal rate of 100%.
The same measure, in the same setting: under `C=C1SC(=Nc2ccc(C)cc2)C(=CSc2ccccc2F)CC1(C)C` (mixture of isomers) [Compound 2-85] stands 100%.
The same measure, in the same setting: under `C=C1SC(=Nc2cccc(C(F)(F)F)c2)C(=CSc2ccccc2)CC1(C)C` [Compound 2-36] stands 100%; under `C=C1SC(=Nc2ccc(C)cc2)C(=CSc2ccc(C)cc2)CC1(C)C` (mixture of isomers) [Compound 2-86], 100%; under `C=C1SC(=Nc2ccc(C)cc2)C(=CSc2cccc(OC)c2)CC1(C)C` [Compound 2-20], 100%.
`C=C1SC(=Nc2ccc(C)cc2)C(=CSc2ccc(C#N)cc2)CC1(C)C` [Compound 2-72] showed an adulticidal rate of 100%.
Still for that read-out and setting: the result for `CC/C=C1/CCC(=C\Sc2ccccc2)/C(=N/c2ccc(Cl)cc2)S1` [Compound 2-3] reads 100%.
On to `C=C1SC(=Nc2ccc(C)cc2)C(=CSc2nc3ccccc3s2)CC1(C)C` [Compound 2-94], for which the adulticidal rate worked out at 100%.
On to `C=C1SC(=Nc2ccc(C)cc2)C(=CSc2ccccc2)CC12CCOCC2` [Compound 2-56], for which the adulticidal rate is 100%.
Consider `C=C1SC(=Nc2ccc(C)cc2)C(=CSc2ccccc2)CC1CCC` (stereo not drawn) [Compound 2-75], for which the adulticidal rate worked out at 100%.
Still for that read-out and setting: under `CC(C)=C1CCC(=CSc2ccccc2)C(=Nc2ccc(C)cc2)S1` (mixture of isomers) [Compound 6-1] stands 100%; under `C=C1SC(=Nc2ccc(C)cc2)C(=CSc2ccc(OC)s2)CC1(C)C` [Compound 2-80], 100%; under `C=C1SC(=Nc2ccc(OC)cc2)C(=CSc2ccc(F)cc2)CC1(C)C` [Compound 2-46], 100%.
For the compound `C=C1SC(=Nc2ccc(C)cc2)C(=CSc2ccccc2)CC1CC` (stereo not drawn) [Compound 2-68], the adulticidal rate is 100%.
Still for that read-out and setting: under `C=C1SC(=Nc2ccc(OC)c(C)c2)C(=CSc2ccccc2)CC1(C)C` [Compound 2-34] stands 100%.

A further experiment has as its system Rice Armyworm (Mythimna Separata). Nature of the experiment: Efficacy test against rice armyworm, corn leaf dip. The experiment is classed as in vivo. The note with it: 125 ppm, emulsifiable concentrate diluted with water, corn leaves immersed, second instar larvae, after 5 days, 25° C. As for the experimental part:
as §1
The emulsifiable concentrate obtained according to Formulation of Formulation Example 2 was diluted with water so as to control the concentration of the compound to 125 ppm. Leaves of corn were immersed in this diluted solution for 30 seconds and then air-dried. The leaves were put in a petri dish on which a filter paper is laid, and then five second instar larvae of rice armyworm were inoculated. After covering the petri dish with a glass lid, the petri dish was placed in a temperature-controlled room at a temperature of 25° C. and a humidity of 65%. After 5 days, life and death were examined and the insecticidal rate was determined. The test was repeated twice.
Consider `C=C1SC(=Nc2ccc(C)cc2)C(=CSc2ccccc2C(F)(F)F)CC1(C)C` [Compound 2-100], for which the insecticidal rate is listed as 100%.
Same read-out and setting: the result for `C=C1SC(=Nc2ccc(C)cc2)C(=CSc2ccccc2F)CC1(C)C` (mixture of isomers) [Compound 2-85] reads 100%.
Same read-out and setting: under `C=C1SC(=Nc2cccc(C(F)(F)F)c2)C(=CSc2ccccc2)CC1(C)C` [Compound 2-36] stands 100%; under `C=C1SC(=Nc2ccc(C)cc2)C(=CSc2ccc(C)cc2)CC1(C)C` (mixture of isomers) [Compound 2-86], 100%.
Same read-out and setting: under `C=C1SC(=Nc2ccc(C)cc2)C(=CSc2cccc(OC)c2)CC1(C)C` [Compound 2-20] stands 100%; under `C=C1SC(=Nc2ccc(C)cc2)C(=CSc2ccc(C#N)cc2)CC1(C)C` [Compound 2-72], 100%.
Take `CC/C=C1/CCC(=C\Sc2ccccc2)/C(=N/c2ccc(Cl)cc2)S1` [Compound 2-3]: the insecticidal rate is 100%.
Compound `C=C1SC(=Nc2ccc(C)cc2)C(=CSc2nc3ccccc3s2)CC1(C)C` [Compound 2-94] gave an insecticidal rate of 100%.
Same read-out and setting: under `C=C1SC(=Nc2ccc(C)cc2)C(=CSc2ccccc2)CC12CCOCC2` [Compound 2-56] stands 100%; under `C=C1SC(=Nc2ccc(C)cc2)C(=CSc2ccccc2)CC1CCC` (stereo not drawn) [Compound 2-75], 100%; under `CC(C)=C1CCC(=CSc2ccccc2)C(=Nc2ccc(C)cc2)S1` (mixture of isomers) [Compound 6-1], 100%.
`C=C1SC(=Nc2ccc(C)cc2)C(=CSc2ccc(OC)s2)CC1(C)C` [Compound 2-80] yielded an insecticidal rate of 100%.
`C=C1SC(=Nc2ccc(OC)cc2)C(=CSc2ccc(F)cc2)CC1(C)C` [Compound 2-46] showed an insecticidal rate of 100%.
Compound `C=C1SC(=Nc2ccc(C)cc2)C(=CSc2ccccc2)CC1CC` (stereo not drawn) [Compound 2-68] displayed an insecticidal rate of 100%.
The compound `C=C1SC(=Nc2ccc(OC)c(C)c2)C(=CSc2ccccc2)CC1(C)C` [Compound 2-34] showed an insecticidal rate of 100%.
